Measured values from patent US20230372319A1, “Combination Treatment of Cancer” (Ares Trading S.A., priority 2020, published 2023).

Legend:
B16F10 cells = assay: Subcutaneous B16F10 melanoma model; assay type: in vivo; conditions: C57BL/6 mice, s.c.; bintrafusp alfa 492 μg i.v. days 0, 3, 6; niraparib 50 mg/kg p.o. QDx14; days 15/19; vs isotype control or monotherapies as stated
Experimental: C57BLJ6 mice were inoculated subcutaneously with B16F10 cells (0.5×10^6) in the flank. […] Tumor volumes were measured twice weekly and presented as mean ±SEM or as individual tumor volumes. P-values were calculated by two-way ANOVA with Tukey's or Sidak's post-test.
B16F10 cells were obtained from (ATCC) and were cultured in Dulbecco's Modified Eagle's medium (DMEM) supplemented with 10% fetal bovine serum (FBS). […] Cells were cultured under aseptic conditions and incubated at 37° C. with 5% CO2. Cells were passaged before in vivo implantation and adherent cells were harvested with TrypLE Express. […]
(§1) Tumor sizes were measured twice per week with digital calipers and recorded automatically using WinWedge software. Tumor volumes were calculated with the following formula: tumor volume (mm^3)=tumor length×width×height×0.5236. Tumor growth inhibition (TGI) was calculated with the following formula: TGI (%)=[1−(Ti−T0)/(Vi−V0)]×100, where Ti is the average tumor volume (mm^3) of a treatment group on a given day, T0 is the average tumor volume of the treatment group on the first day of treatment, Vi is the average tumor volume of the vehicle control group on the same day as Ti, and V0 is the average tumor volume of the vehicle control group on the first day of treatment. […]

AT-3 cells = assay: Orthotopic AT-3 breast cancer model; assay type: in vivo, C57BL/6 mice; conditions: for median survival: isotype control 13 days; for responders (mice with tumor volumes<1 σ of the control group mean): day 13 post treatment start, n=10 mice/group
Experimental: C57BL/6 mice were inoculated orthotopically with AT3 cells (0.5×10^6) in the mammary fat pad (day −11). […] Tumor volumes were measured twice weekly. In the lower plot, individual tumor volumes at day 13 are presented with a line representing the median tumor volume and error bars showing the 95% confidence intervals. […] P-values were calculated by two-way ANOVA with Tukey's post-test.
AT-3 cells were obtained from Sigma and were cultured in DMEM supplemented with 10% FBS, 1 mM sodium pyruvate, 2 mM non-essential amino acids, 15 mM HEPES, and 1×β-mercaptoethanol. […] Cells were cultured under aseptic conditions and incubated at 37° C. with 5% CO2. Cells were passaged before in vivo implantation and adherent cells were harvested with TrypLE Express.
For the efficacy study, 0.5×10^6 AT-3 cells were inoculated orthotopically into the right lower mammary at pad of C57BL/6 mice on day −11. Treatment was initiated on day 0 when average tumor volume reached ˜50 mm^3. Mice were sacrificed when tumor volumes reached ˜1000 mm^3.
Mice were randomized into treatment groups according to tumor volume on the day of treatment initiation (day 0).
The isotype control is a mutated version of anti-PD-L1, which completely lacks PD-L1 binding. In tumor-bearing mice, bintrafusp alfa (492 μg) or isotype control (400 μg) were administered with an intravenous (i.v.) injection in 0.2 mL PBS.
Radiation therapy (RT) was delivered at 8 Grey (Gy) on days 0-3.
Tumor sizes were measured twice per week with digital calipers and recorded automatically using WinWedge software. Tumor volumes were calculated with the following formula: tumor volume (mm^3)=tumor length×width×height×0.5236. Tumor growth inhibition (TGI) was calculated with the following formula: TGI (%)=[1−(Ti−T0)/(Vi−V0)]×100, where Ti is the average tumor volume (mm^3) of a treatment group on a given day, T0 is the average tumor volume of the treatment group on the first day of treatment, Vi is the average tumor volume of the vehicle control group on the same day as Ti, and V0 is the average tumor volume of the vehicle control group on the first day of treatment. To compare the percentage survival between different treatment groups, Kaplan-Meier survival curves were generated. Body weight was measured twice weekly and mice were sacrificed when their tumor volume exceeded 2,500 mm^3 for s.c. and intramuscular tumors and 1,000 mm^3 for mammary orthotopic tumors.

[1] = tested on: PARP activity in various cell lines; conditions: cited from earlier work
[2] = tested on: MDA-MB-436 human breast cancer cell line; assay: MDA-MB-436 breast cancer model; assay type: in vivo; conditions: NOD/SCID mice, bintrafusp alfa 492 μg i.v. BiWx4, niraparib 35 mg/kg p.o. QDx28
Experimental: NOD/SCID mice were inoculated with MDA-MB-436 cells (10×10^6) in the right flank (day −19). […] Tumor volumes were measured twice weekly and presented as mean ±SEM or as individual tumor volumes. P-values were calculated by two-way ANOVA with Tukey's or Sidak's post-test.
MDA-MB-436 (BRCA1-mut) cells were obtained from American Type Culture Collection (ATCC® HTB-130™) and were cultured in RPMI-1640 supplemented with 10% heat inactivated fetal bovine serum, 100 U/ml penicillin and 100 μg/ml streptomycin at 37° C. in an atmosphere of 5% CO2 in air. […] Cells were cultured under aseptic conditions and incubated at 37° C. with 5% CO2. […]
as §1

[3] = tested on: MDA-MB-231 human breast cancer; assay: MDA-MB-231 breast cancer model; assay type: in vivo; conditions: NOD/SCID mice, s.c.; bintrafusp alfa 492 μg i.v. BiWx4; niraparib 50 mg/kg p.o. QDx28; day 41; vs isotype control or monotherapies as stated
Experimental: NOD/SCID mice were subcutaneously inoculated with MDA-MB-231 cells (10×10^6) in the right flank (day −19). […] Tumor volumes were measured twice weekly and presented as mean ±SEM or as individual tumor volumes. P-values were calculated by two-way ANOVA with Tukey's post-test.
MDA-MB-231 (BRCA-wt) cells were obtained from ATCC (ATCC® HTB-26™) and were cultured in Leibovitz's L-15 supplemented with 15% heat inactivated fetal bovine serum, 100 U/ml penicillin and 100 μg/ml streptomycin at 37° C. in an atmosphere of 5% CO2 in air. […] Cells were cultured under aseptic conditions and incubated at 37° C. with 5% CO2. Cells were passaged before in vivo implantation and adherent cells were harvested with TrypLE Express. […]
as §1

RENCA cells = conditions: BALB/c mice, day 12; bintrafusp alfa 492 μg i.v. days 0, 2, 5; niraparib 50 mg/kg p.o. days 0-11
Experimental: BALB/c mice were inoculated orthotopically with RENCA cells (0.5×10^5) in the left kidney (day −6). […] Mice were euthanized at day 12 and both kidneys were weighed. The weight of the tumor bearing left kidney was divided by the weight of the bilateral right kidney to calculate the kidney mass ratio. Individual kidney mass ratios were plotted, with a line representing the median.
The RENCA cells were obtained from ATCC (ATCC® CRL-2947™) and were cultured in RPMI-1640 with 10% heat inactivated fetal bovine serum and 0.1 mM non-essential amino acids. […] Cells were cultured under aseptic conditions and incubated at 37° C. with 5% CO2. […]
as §1

Row | Compound | tumor growth (tumor volume), in words (B16F10 cells) | median survival (AT-3 cells; C57BL/6 mice) [days] | responders (mice with tumor volumes<1 σ of the control group mean) (AT-3 cells) | inhibitory concentration at 90% of control (1090) of PARP activity in cells ([1]; PARP activity stimulated by DNA damage caused by hydrogen peroxide) [nM] | IC50 ([1]; read-out: IC50 of PARP activity in cells, PARP activity stimulated by DNA damage caused by hydrogen peroxide) [nM] | median time to disease progression after stopping treatment [2] [days] | tumor growth (tumor volume), in words ([2]; vs isotype control or monotherapy as stated, days 41/69) | tumor growth (tumor volume), in words [3] | relative kidney tumor burden: ratio of mass of tumor bearing kidney to bilateral normal kidney (median) (RENCA cells) | tumor growth relative to isotype control or bintrafusp alfa monotherapy, in words (AT-3 cells; C57BL/6 mice, day 13, bintrafusp alfa 492 μg i.v. days 0, 3, 6, niraparib 50 mg/kg p.o. days 0-13)
1 | NC(=O)c1cccc2cn(-c3ccc([C@@H]4CCCNC4)cc3)nc12 [niraparib, (3S)-3-[4-{7-(aminocarbonyl)-2H-indazol-2-yl}phenyl]piperidine] | neither bintrafusp alfa nor niraparib monotherapies significantly reduced tumor growth | 13 | 5/10 | ~50 | ~4 | 42.5 | significantly inhibited tumor growth | significantly reduced tumor growth | – | –
2 | bintrafusp alfa: anti-PD-L1:TGFβRII fusion protein; human IgG1 antibody against PD-L1 fused to extracellular domain of human TGF-β receptor II; SEQ ID NO: 7 and 8 | neither bintrafusp alfa nor niraparib monotherapies significantly reduced tumor growth | 13 | 1/10 | – | – | – | – | significantly reduced tumor growth | 3.74 | did not significantly reduce tumor growth
